In patent US6544511B2, “Plant disease control agent” (Akatsuka Orchid Co., Ltd., priority 2000, dated 2003):
Numbered stars: 1 amine (or outer) side, 2 acyl side, 3 side chain; on linkers, the order of the positions; unused ones are H or OH. Bridge positions count the residues as written; N and C are the ends. Square brackets hold non-standard residues; d marks the D form. Peptide text beside a SMILES is read from it. I, II: the chains in the order shown. Actinocin(9to1) = Cc1c2oc3c(C)ccc(C(=O)[*:1])c3nc-2c(C(=O)[*:2])c(N)c1=O; NMeV = CN[C@H](C(=O)O)C(C)C; Sar = CNCC(=O)O

Tests used:
[1] = tested on: Pestalotiopsis sydowiana MAFF No. 305755; assay: Antibiotic sensitivity test for pathogenic filamentous fungi (mycelial mat diameter); format: cell-based; details: for Sensitivity of Pestalotiopsis sydowiana against antibiotic: 0.1, 1, 10 μg/ml in potato sucrose agar medium, 3 days (FIGS. 12, 13)
Method: (§1) Pathogenic filamentous fungi were tested for their sensitivity against antibiotics belonging to actinomycin and polyen anti-fungal antibiotics shown to be produced by R-5 strain. First, actinomycin D or amphotericin B (polyen anti-fungal antibiotic) was dissolved to concentrations of 0.1, 1, and 10 μg/mil in potato sucrose agar medium cooled to about 45° C., and solidified. Mycelial disks with a diameter of 6 mm, which had been stamped out from mycelial mats of Phytophthora cinnamomi MAFF No. 305565 or Pestalotiopsis sydowiana MAFF No. 305755 pre-cultured for 7 days on potato sucrose agar medium, were inoculated onto the potato sucrose agar medium solidified as described above. Each diameter of the mycelial mats was measured with time for 3 days.

[2] = tested on: Phytophthora cinnamomi MAFF No. 305565; assay: as above; format: cell-based; details: for Sensitivity of Phytophthora cinnamomi against antibiotic: 0.1, 1, 10 μg/ml in potato sucrose agar medium, 3 days (FIGS. 10, 11)
Method: as §1

SMILES | Growth of the mycelia of Pestalotiopsis sydowiana ([1]; 10 μg/ml) | Sensitivity of Pestalotiopsis sydowiana against antibiotic [1] | Growth of the mycelial mat of Phytophthora cinnamomi ([2]; 10 μg/ml) | Sensitivity of Phytophthora cinnamomi against antibiotic [2] | Growth of the mycelia of Pestalotiopsis sydowiana ([1]; 0.1 μg/ml)
Cc1c2oc3c(C)ccc(C(=O)N[C@@H]4C(=O)N[C@H](C(C)C)C(=O)N5CCC[C@H]5C(=O)N(C)CC(=O)N(C)[C@@H](C(C)C)C(=O)O[C@@H]4C)c3nc-2c(C(=O)N[C@@H]2C(=O)N[C@H](C(C)C)C(=O)N3CCC[C@H]3C(=O)N(C)CC(=O)N(C)[C@@H](C(C)C)C(=O)O[C@@H]2C)c(N)c1=O [actinomycin D] (I: T[dV]P[Sar][NMeV] / II: T[dV]P[Sar][NMeV]; ester I:1-I:C, II:1-II:C; linker I:N-II:N via Actinocin(9to1)) | significantly suppressed the growth | weak sensitivity | completely stopped the growth | showed sensitivity | 
C[C@@H]1[C@H](O)[C@@H](C)/C=C/C=C/C=C/C=C/C=C/C=C/C=C/[C@H](O[C@@H]2O[C@H](C)[C@@H](O)[C@H](N)[C@@H]2O)C[C@@H]2O[C@](O)(C[C@@H](O)C[C@@H](O)[C@H](O)CC[C@@H](O)C[C@@H](O)CC(=O)O[C@H]1C)C[C@H](O)[C@H]2C(=O)O [amphotericin B] |  | high sensitivity |  | almost no sensitivity | completely suppressed the growth of the mycelia
